Experimental data reported in patent US11147272B2, “Pyridone compounds and agricultural and horticultural fungicides comprising the same as active ingredients” (MITSUI CHEMICALS AGRO, INC., priority 2017, dated 2021).

How the values were obtained:
Puccinia recondita = assay: Test Example E: Brown rust on wheat; format: in vivo; conditions: 250 ppm drug solution sprayed on test plant
[1] = system: Colletotrichum orbiculare; assay: Test Example H: Anthracnose on cucumber; conditions: 250 ppm drug solution sprayed (2.5 ml/pot), cucumber Sagami Hanjiro, 6 to 10 days after inoculation
Alternaia brassicicola = assay: Test Example C: Alternaria sooty spot on cabbage; format: in vivo; conditions: 250 ppm drug solution sprayed on test plant
Text: Seeds of a test plant (cabbage variety: Shikidori) were planted and cultivated until the cotyledons extended.
<Control Value> Control value=100{1−(n/3)}

Magnaporthe grisea = assay: whole plant or invertebrate; format: in vivo; conditions: 250 ppm drug solution sprayed on test plant
[2] = system: Blumeria graminis f. sp. hordei; assay: Test Example D: Powdery mildew on barley; conditions: 250 ppm drug solution sprayed on test plant
Plasmopara viticola = assay: Test Example G: Downy mildew on vine; conditions: 250 ppm drug solution sprayed (2.5 ml/pot), grape Neomuscat, 7 to 10 days after inoculation
Botrytis cinerea = assay: Test Example B: Gray mold on tomato; conditions: 250 ppm drug solution sprayed on test plant
Phytophthora infestans = assay: whole plant or invertebrate; format: in vivo; conditions: 250 ppm drug solution sprayed on test plant

SMILES	Test E control value (Puccinia recondita)	Test H control value [1]	Test C control value (Alternaia brassicicola)	Test A control value (Magnaporthe grisea)	Test D control value [2]	Test G control value (Plasmopara viticola)	Test B control value (Botrytis cinerea)	Test F control value (Phytophthora infestans)
C#CCOc1cc(F)c(-c2c(CCC)ccc(=O)n2CC)c(F)c1 [compound 459]	H (more than 50% control value)	H (more than 50% control value)	H (more than 50% control value)	H (more than 50% control value)	H (more than 50% control value)	H (more than 50% control value)	H (more than 50% control value)	L (50% or less control value)
CC#CCOc1cc(F)c(-c2c(CCC)ccc(=O)n2CC)c(F)c1 [compound 460]	H (more than 50% control value)	H (more than 50% control value)	H (more than 50% control value)	H (more than 50% control value)	H (more than 50% control value)	H (more than 50% control value)	H (more than 50% control value)	L (50% or less control value)
CC#CCOc1cc(F)c(-c2c(CCC)cc(Cl)c(=O)n2CC)c(F)c1 [compound 461]	H (more than 50% control value)	H (more than 50% control value)	H (more than 50% control value)	H (more than 50% control value)	H (more than 50% control value)	H (more than 50% control value)	H (more than 50% control value)	L (50% or less control value)
CC#CCOc1cc(F)c(-c2c(CCC)cc(Br)c(=O)n2CC)c(F)c1 [compound 462]	H (more than 50% control value)	H (more than 50% control value)	H (more than 50% control value)	L (50% or less control value)	L (50% or less control value)	L (50% or less control value)	H (more than 50% control value)	H (more than 50% control value)
C#CCOc1cc(F)c(-c2c(CCC)cc(Cl)c(=O)n2CC)c(F)c1 [compound 463]	H (more than 50% control value)	H (more than 50% control value)	H (more than 50% control value)	H (more than 50% control value)	H (more than 50% control value)	H (more than 50% control value)	H (more than 50% control value)	L (50% or less control value)
C#CCOc1cc(F)c(-c2c(CCC)cc(Br)c(=O)n2CC)c(F)c1 [compound 464]	H (more than 50% control value)	H (more than 50% control value)	H (more than 50% control value)	L (50% or less control value)	H (more than 50% control value)	L (50% or less control value)	H (more than 50% control value)	L (50% or less control value)
CCn1c(-c2c(F)cc(F)cc2F)c(C(C)(OC)C(C)C)cc(Br)c1=O (stereo not shown) [compound 465]	H (more than 50% control value)	H (more than 50% control value)	H (more than 50% control value)	H (more than 50% control value)	H (more than 50% control value)	H (more than 50% control value)	H (more than 50% control value)	L (50% or less control value)
CCOC(C)(c1cc(Br)c(=O)n(CC)c1-c1c(F)cc(F)cc1F)C(C)C (stereo not shown) [compound 466]	L (50% or less control value)	L (50% or less control value)	H (more than 50% control value)	L (50% or less control value)	H (more than 50% control value)	L (50% or less control value)	L (50% or less control value)	L (50% or less control value)
CCn1c(-c2c(F)cc(OC)cc2F)c(C(C)(OC)C(C)C)cc(Br)c1=O (stereo not shown) [compound 467]	H (more than 50% control value)	H (more than 50% control value)	H (more than 50% control value)	H (more than 50% control value)	H (more than 50% control value)	H (more than 50% control value)	H (more than 50% control value)	L (50% or less control value)
CCOC(C)(c1cc(Br)c(=O)n(CC)c1-c1c(F)cc(OC)cc1F)C(C)C (stereo not shown) [compound 468]	H (more than 50% control value)	H (more than 50% control value)	H (more than 50% control value)	H (more than 50% control value)	H (more than 50% control value)	H (more than 50% control value)	H (more than 50% control value)	H (more than 50% control value)
CCCc1ccc(=O)n(CC(F)F)c1-c1c(F)cc(F)cc1F [compound 470]	L (50% or less control value)	H (more than 50% control value)	H (more than 50% control value)	L (50% or less control value)	L (50% or less control value)	L (50% or less control value)	L (50% or less control value)	L (50% or less control value)
CCCc1cc(Cl)c(=O)n(CC(F)F)c1-c1c(F)cc(F)cc1F [compound 471]	H (more than 50% control value)	H (more than 50% control value)	H (more than 50% control value)	H (more than 50% control value)	H (more than 50% control value)	H (more than 50% control value)	H (more than 50% control value)	L (50% or less control value)
CCCc1cc(Br)c(=O)n(CC(F)F)c1-c1c(F)cc(F)cc1F [compound 472]	H (more than 50% control value)	H (more than 50% control value)	H (more than 50% control value)	H (more than 50% control value)	H (more than 50% control value)	H (more than 50% control value)	H (more than 50% control value)	L (50% or less control value)
CCCc1cc(I)c(=O)n(CC(F)F)c1-c1c(F)cc(F)cc1F [compound 473]	H (more than 50% control value)	L (50% or less control value)	H (more than 50% control value)	H (more than 50% control value)	H (more than 50% control value)	L (50% or less control value)	H (more than 50% control value)	L (50% or less control value)
CCCc1ccc(=O)n(CC(F)F)c1-c1c(F)cc(OC)cc1F [compound 474]	H (more than 50% control value)	H (more than 50% control value)	H (more than 50% control value)	H (more than 50% control value)	H (more than 50% control value)	H (more than 50% control value)	H (more than 50% control value)	L (50% or less control value)
CCCc1cc(Cl)c(=O)n(CC(F)F)c1-c1c(F)cc(OC)cc1F [compound 475]	H (more than 50% control value)	H (more than 50% control value)	H (more than 50% control value)	H (more than 50% control value)	H (more than 50% control value)	H (more than 50% control value)	H (more than 50% control value)	L (50% or less control value)
CCCc1cc(Br)c(=O)n(CC(F)F)c1-c1c(F)cc(OC)cc1F [compound 476]	H (more than 50% control value)	H (more than 50% control value)	H (more than 50% control value)	H (more than 50% control value)	H (more than 50% control value)	H (more than 50% control value)	H (more than 50% control value)	L (50% or less control value)
